# Measurements reported in article PMC10247784, “Physiological activation of human and mouse bitter taste receptors by bile acids” (Communications Biology, 2023).
# System: HEK293T-Gα16gust44 cells transfected with empty vector (mock)
# Assay: Calcium imaging assay (FLIPR), empty vector control (mock)
# Type: cell-based
# Method: This set of bile acids was chosen because of their commercial availability in high purities, their diversity within the class of bile acids and their previous detection and quantitation in human blood. Stock solutions were prepared in DMSO.
# As basal growth medium for the HEK293T-Gα16gust44 cell line[17],[59] served Dulbecco’s modified eagle medium (DMEM) (Thermo Fisher Scientific, Darmstadt, Germany) supplemented with 10 % fetal bovine serum (Sigma-Aldrich, Steinheim, Germany), 2 mM L-glutamine (Sigma-Aldrich, Steinheim, Germany), 100 units/ml penicillin (Sigma Aldrich, Steinheim, Germany) and 100 µg/ml streptomycin (Sigma Aldrich, Steinheim, Germany). Growth conditions were 37 °C, 5 % CO2 and saturated air-humidity[60].
# HEK293T-Gα16gust44 cells were seeded on poly-D-lysine (10 µg/ml) coated 96-well plates to reach a confluence of 40-60 % the next day. For transient transfection 150 ng of plasmid DNA containing the receptor of interest and 0.3 µl lipofectamine 2000 (Thermo Fisher Scientific, Darmstadt, Germany) per well were used and transfection took place according to the manual of lipofectamine 2000. […] The empty vector DNA (mock) was transfected as negative control[14],[41].
# Cells were loaded using the calcium-sensitive fluorescent dye Fluo-4-AM (Abcam, Cambridge, Great Britain) in the presence of 2.5 mM probenecid (Sigma-Aldrich, Steinheim, Germany) the day after transfection[13],[41]. 1 h after loading, cells were washed with C1 buffer using a BioTek Cell Washer, incubated in the dark for half an hour and washed again. For automated agonist application and measurement of fluorescence changes, a FLIPR^TETRA device (Molecular Devices, San José, United States) was used. Viability of cells was tested by application of 100 nM Somatostatin 14 (Bachem, Bubendorf, Switzerland)[42].
# Measured data were negative control corrected by subtracting the signal of the mock-transfected cells and exported to Microsoft Excel using the FLIPR software ScreenWorks 4.2. In Microsoft Excel software, standardization of maximum fluorescence intensities to the basal fluorescence and normalization to the buffer-only control was done to calculate the relative fluorescence changes (ΔF/F).
# Initial screening experiments performed in duplicate wells were confirmed by at least one replication and representative traces were selected for display. All dose-response relationships were determined by three independent experiments (biological replicates) performed in duplicates (technical replicates). Threshold concentrations, defined as lowest substance concentrations leading to statistically significant elevated fluorescence changes in receptor-transfected cells compared with empty vector-transfected cells, were determined using SigmaPlot with Student’s t-test to evaluate statistical significance (p < 0.01).
# [1] = Mock (sheet Tas2r123), conc. 0,01 mM
# [2] = Mock (sheet Tas2r123), conc. 0,03 mM
# [3] = Mock (sheet Tas2r123), conc. 0,0003 mM
# [4] = Mock (sheet Tas2r123), conc. 0,001 mM
# [5] = Mock (sheet Tas2r123), conc. 0,003 mM
# [6] = Mock, sheet TAS2R4, conc. 0,01 mM
# [7] = Mock, sheet TAS2R4, conc. 0,03 mM
# [8] = Mock, sheet TAS2R4, conc. 0,0003 mM
# [9] = Mock, sheet TAS2R4, conc. 0,001 mM
# [10] = Mock, sheet TAS2R4, conc. 0,003 mM
# [11] = Mock, sheet Tas2r105, conc. 0,01 mM
# [12] = Mock, sheet Tas2r105, conc. 0,03 mM
# [13] = Mock, sheet Tas2r105, conc. 0,00003 mM
# [14] = Mock, sheet Tas2r105, conc. 0,0001 mM
# [15] = Mock, sheet Tas2r105, conc. 0,0003 mM
# [16] = Mock, sheet Tas2r105, conc. 0,001 mM
# [17] = Mock, sheet Tas2r105, conc. 0,003 mM
# [18] = Mock, sheet Tas2r108, conc. 0,01 mM
# [19] = Mock, sheet Tas2r108, conc. 0,03 mM
# [20] = Mock, sheet Tas2r108, conc. 0,001 mM
# [21] = Mock, sheet Tas2r108, conc. 0,003 mM
# [22] = conc. 0,01 mM, Mock (sheet TAS2R1)
# [23] = conc. 0,03 mM, Mock (sheet TAS2R1)
# [24] = conc. 0,0003 mM, Mock (sheet TAS2R1)
# [25] = conc. 0,001 mM, Mock (sheet TAS2R1)
# [26] = conc. 0,003 mM, Mock (sheet TAS2R1)
# [27] = Mock, sheet TAS2R14, conc. 0,01 mM
# [28] = Mock, sheet TAS2R14, conc. 0,03 mM
# [29] = Mock, sheet TAS2R14, conc. 0,001 mM
# [30] = Mock, sheet TAS2R14, conc. 0,003 mM
# [31] = conc. 0,00003 mM, Mock (sheet TAS2R1)
# [32] = conc. 0,0001 mM, Mock (sheet TAS2R1)
structure (smiles),measurement,setting,value
"C[C@H](CCC(=O)O)[C@H]1CC[C@H]2[C@@H]3CC[C@@H]4C[C@H](O)CC[C@]4(C)[C@H]3C[C@H](O)[C@]12C [Deoxycholic Acid, deoxycholic acid]",Δ F/F,[1],-0.0008829
same,Δ F/F,[2],-0.0003165
same,Δ F/F,"Mock (sheet Tas2r123), conc. 0,0001 mM",0.00132
same,Δ F/F,[3],-0.002173
same,Δ F/F,[4],-0.000706
same,Δ F/F,[5],-0.0005125
same,Δ F/F,[6],0.0004181
same,Δ F/F,[7],0.001864
same,Δ F/F,[8],0.0005365
same,Δ F/F,[9],0.0001116
same,Δ F/F,[10],0.0001746
same,Δ F/F,[11],-0.01259
same,Δ F/F,[12],-0.004122
same,Δ F/F,[13],-0.01446
same,Δ F/F,[14],-0.0178
same,Δ F/F,[15],-0.01787
same,Δ F/F,[16],-0.0148
same,Δ F/F,[17],-0.01449
same,Δ F/F,[18],-0.006813
same,Δ F/F,[19],-0.0003425
same,Δ F/F,"Mock, sheet Tas2r108, conc. 0,00003 mM",-0.01113
same,Δ F/F,"Mock, sheet Tas2r108, conc. 0,0001 mM",-0.01772
same,Δ F/F,"Mock, sheet Tas2r108, conc. 0,0003 mM",-0.01462
same,Δ F/F,[20],-0.01703
same,Δ F/F,[21],-0.01481
same,Δ F/F,[22],-0.0008034
same,Δ F/F,[23],-0.0003771
same,Δ F/F,[24],-0.002238
same,Δ F/F,[25],-0.001593
same,Δ F/F,[26],-0.0004081
"C[C@H](CCC(=O)O)[C@H]1CC[C@H]2[C@@H]3[C@H](O)C[C@@H]4C[C@H](O)CC[C@]4(C)[C@H]3CC[C@]12C [Chenodeoxycholic Acid, chenodeoxycholic acid]",Δ F/F,[27],-0.007814
same,Δ F/F,[28],-0.004111
same,Δ F/F,"Mock, sheet TAS2R14, conc. 0,00003 mM",-0.01383
same,Δ F/F,"Mock, sheet TAS2R14, conc. 0,0001 mM",-0.0179
same,Δ F/F,"Mock, sheet TAS2R14, conc. 0,0003 mM",-0.01292
same,Δ F/F,[29],-0.005111
same,Δ F/F,[30],-0.006729
same,Δ F/F,[22],-0.001385
same,Δ F/F,[31],-0.0006042
same,Δ F/F,[32],-0.001709
same,Δ F/F,[24],-0.001427
same,Δ F/F,[25],-0.001629
same,Δ F/F,[26],-0.001467
"C[C@H](CCC(=O)O)[C@H]1CC[C@H]2[C@@H]3[C@H](O)C[C@@H]4C[C@H](O)CC[C@]4(C)[C@H]3C[C@H](O)[C@]12C [Cholic Acid, cholic acid]",Δ F/F,"Conc. 0,01 mM, Mock (sheet TAS2R39)",-0.01821
same,Δ F/F,"Conc. 0,1 mM, Mock (sheet TAS2R39)",-0.02224
same,Δ F/F,"Conc. 0,03 mM, Mock (sheet TAS2R39)",-0.01697
same,Δ F/F,"Conc. 0,3 mM, Mock (sheet TAS2R39)",-0.04388
same,Δ F/F,"Conc. 0,001 mM, Mock (sheet TAS2R39)",-0.01201
same,Δ F/F,"Conc. 1 mM, Mock (sheet TAS2R39)",-0.08707
same,Δ F/F,"Conc. 0,003 mM, Mock (sheet TAS2R39)",-0.01404
same,Δ F/F,[1],-0.0003322
same,Δ F/F,"Mock (sheet Tas2r123), conc. 0,1 mM",-0.0005726
same,Δ F/F,[2],-0.0005964
same,Δ F/F,"Mock (sheet Tas2r123), conc. 0,3 mM",0.0008115
same,Δ F/F,[3],-0.001363
same,Δ F/F,[4],-0.001187
same,Δ F/F,[5],-0.0002243
same,Δ F/F,"Mock (sheet Tas2r126), conc. 0,01 mM",-0.02005
same,Δ F/F,"Mock (sheet Tas2r126), conc. 0,1 mM",-0.02997
same,Δ F/F,"Mock (sheet Tas2r126), conc. 0,03 mM",-0.01829
same,Δ F/F,"Mock (sheet Tas2r126), conc. 0,3 mM",-0.04711
same,Δ F/F,"Mock (sheet Tas2r126), conc. 0,001 mM",-0.01156
same,Δ F/F,"Mock (sheet Tas2r126), conc. 1 mM",-0.07412
same,Δ F/F,"Mock (sheet Tas2r126), conc. 0,003 mM",-0.01876
same,Δ F/F,"Mock (sheet Tas2r144), conc. 0,01 mM",0.0002394
same,Δ F/F,"Mock (sheet Tas2r144), conc. 0,1 mM",-0.0009617
same,Δ F/F,"Mock (sheet Tas2r144), conc. 0,03 mM",0.0001706
same,Δ F/F,"Mock (sheet Tas2r144), conc. 0,3 mM",2.3167e-5
same,Δ F/F,"Mock (sheet Tas2r144), conc. 0,003 mM",-0.001282
same,Δ F/F,[6],-0.001675
same,Δ F/F,"Mock, sheet TAS2R4, conc. 0,1 mM",0.0001605
same,Δ F/F,[7],-0.001772
same,Δ F/F,"Mock, sheet TAS2R4, conc. 0,3 mM",0.0004382
same,Δ F/F,[8],0.001019
same,Δ F/F,[9],-0.0001368
same,Δ F/F,[10],-0.001078
same,Δ F/F,[27],-0.01829
same,Δ F/F,"Mock, sheet TAS2R14, conc. 0,1 mM",-0.02451
same,Δ F/F,[28],-0.01803
same,Δ F/F,"Mock, sheet TAS2R14, conc. 0,3 mM",-0.04097
same,Δ F/F,[29],-0.0206
same,Δ F/F,"Mock, sheet TAS2R14, conc. 1 mM",-0.06455
same,Δ F/F,[30],-0.02081
same,Δ F/F,[11],-0.01514
same,Δ F/F,"Mock, sheet Tas2r105, conc. 0,1 mM",-0.02586
same,Δ F/F,[12],-0.01353
same,Δ F/F,"Mock, sheet Tas2r105, conc. 0,3 mM",-0.04947
same,Δ F/F,[16],-0.01259
same,Δ F/F,"Mock, sheet Tas2r105, conc. 1 mM",-0.08731
same,Δ F/F,[17],-0.01645
same,Δ F/F,[18],-0.0241
same,Δ F/F,"Mock, sheet Tas2r108, conc. 0,1 mM",-0.03289
same,Δ F/F,[19],-0.0233
same,Δ F/F,"Mock, sheet Tas2r108, conc. 0,3 mM",-0.05172
same,Δ F/F,[20],-0.01866
same,Δ F/F,"Mock, sheet Tas2r108, conc. 1 mM",-0.07524
same,Δ F/F,[21],-0.01483
same,Δ F/F,"Mock, sheet Tas2r117, conc. 0,01 mM",-0.001513
same,Δ F/F,"Mock, sheet Tas2r117, conc. 0,1 mM",-0.0006881
same,Δ F/F,"Mock, sheet Tas2r117, conc. 0,03 mM",-0.0006551
same,Δ F/F,"Mock, sheet Tas2r117, conc. 0,3 mM",-0.001135
same,Δ F/F,"Mock, sheet Tas2r117, conc. 0,0003 mM",-0.002036
same,Δ F/F,"Mock, sheet Tas2r117, conc. 0,001 mM",-0.0005906
same,Δ F/F,"Mock, sheet Tas2r117, conc. 0,003 mM",-0.001196
same,Δ F/F,[22],-0.002604
same,Δ F/F,"conc. 0,1 mM, Mock (sheet TAS2R1)",-0.002131
same,Δ F/F,[23],-0.002188
same,Δ F/F,"conc. 0,3 mM, Mock (sheet TAS2R1)",-0.001094
same,Δ F/F,[25],-0.001978
same,Δ F/F,[26],-0.003067
"C[C@H](CCC(=O)O)[C@H]1CC[C@H]2[C@@H]3CC[C@@H]4C[C@H](O)CC[C@]4(C)[C@H]3CC[C@]12C [Lithocholic Acid, lithocholic acid]",Δ F/F,[11],-0.0002988
same,Δ F/F,"Mock, sheet Tas2r105, conc. 0,00001 mM",-0.01431
same,Δ F/F,[13],-0.01708
same,Δ F/F,[14],-0.01503
same,Δ F/F,[15],-0.01339
same,Δ F/F,[16],-0.01175
same,Δ F/F,[17],-0.00295
same,Δ F/F,[31],-7.475e-5
same,Δ F/F,[32],-0.001646
same,Δ F/F,[24],-0.002463
same,Δ F/F,[25],-0.001163
same,Δ F/F,[26],-0.0001447
